Test results as given in patent US20100298141A1, “SUBSTITUTED PYRIDINE N-OXIDE HERBICIDES” (E. I. DU PONT DE NEMOURS AND COMPANY, priority 2007, published 2010).

Legend:
common chickweed = test: Test F preemergence test; assay type: in vivo, Stellaria media; conditions: scale 0 to 100
Excerpt: Seeds of plant species selected from bermudagrass (Cynodon dactylon), Surinam grass (Brachiaria decumbens), large crabgrass (Digitaria sanguinalis), green foxtail (Setaria viridis), goosegrass (Eleusine indica), johnsongrass (Sorghum halepense), kochia (Kochia scoparia), pitted morningglory (Ipomoea lacunosa), purple nutsedge (Cyperus rotundus), common ragweed (Ambrosia elation), mustard (Brassica nigra), guineagrass (Panicum maximum), […] (Paspalum dilatatum), barnyardgrass (Echinochloa crus-galli), southern sandbur (Cenchrus echinatus), common sowthistle (Sonchus oleraceous), prickly […] spinosa), Italian ryegrass (Lolium multiflorum), common purslane (Portulaca oleracea), broadleaf signalgrass (Brachiaria platyphylla), common groundsel (Senecio vulgaris), common chickweed (Stellaria media), Virginia dayflower (Commelina virginica), annual bluegrass (Poa annua), naked crabgrass (Digitaria nuda), […] cochinchinensis), quackgrass (Elytrigia repens), Canada horseweed (Conyza canadensis), field bindweed (Convolvulus arvensis), […] (Bidens bipinnata), common mallow (Malva sylvestris), Russian thistle (Salsola kali), and sugarcane (Saccharum officinarum) were planted and treated preemergence with test chemicals formulated in a non-phytotoxic solvent mixture which included a surfactant. At a different time, sugarcane was treated with postemergence applications of some of the test chemicals formulated in the same manner. Plants were approximately 3- to 4-leaf stage for the postemergence treatments. Treated plants and controls were maintained in a greenhouse for 14 to 21 days, after which time all species were compared to controls and visually evaluated. […] A dash (-) response means no test result.

windgrass = test: Test C pre-/postemergence test; assay type: in vivo, Apera spica-venti; conditions: Postemergence; for Plant response rating, Windgrass: scale 0 to 100, 0 no effect, 100 complete control
Excerpt: Seeds of plant species selected from blackgrass (Alopecurus myosuroides), downy brome (Bromus tectorum), green foxtail (Setaria viridis), Italian ryegrass (Lolium multiflorum), wheat (Triticum aestivum), wild oat (Avena fatua), catchweed bedstraw (Galium aparine), Russian thistle (Salsola kali), […] (Cynodon dactylon), Surinam grass (Brachiaria decumbens), cocklebur (Xanthium strumarium), corn (Zea mays), crabgrass (Digitaria sanguinalis), woolly cupgrass (Eriochloa villosa), giant foxtail (Setaria faberii), Goosegrass (Eleusin indica), johnsongrass (Sorghum halepense), kochia (Kochia scoparia), lambsquarters (Chenopodium album), morningglory (Ipomoea coccinea), eastern black nightshade (Solanum ptycanthum), yellow nutsedge (Cyperus esculentus), pigweed (Amaranthus retroflexus), common ragweed (Ambrosia elation), soybean (Glycine max), common (oilseed) sunflower (Helianthus annuus), and velvetleaf (Abutilon theophrasti) were planted and treated preemergence with test chemicals formulated in a non-phytotoxic solvent mixture which included a surfactant. At the same time, plants selected from these crop and weed species and also winter barley (Hordeum vulgare), canarygrass (Phalaris minor), and chickweed (Stellaria media) were treated with postemergence applications of some of the test chemicals formulated in the same manner. Plants ranged in height from 2 to 18 cm (1- to 4-leaf stage) for postemergence treatments. […] At time of treatment, test pots were flooded to 3 cm above the soil surface, treated by application of test compounds directly to the paddy water, and then maintained at that water depth for the duration of the test. […] A dash (-) response means no test result.

canarygrass = test: Test C postemergence test; assay type: in vivo, Phalaris minor; conditions: for Plant response rating, Canarygrass: scale 0 to 100, 0 no effect, 100 complete control
Method: At the same time, plants selected from these crop and weed species and also winter barley (Hordeum vulgare), canarygrass (Phalaris minor), and chickweed (Stellaria media) were treated with postemergence applications of some of the test chemicals formulated in the same manner. Plants ranged in height from 2 to 18 cm (1- to 4-leaf stage) for postemergence treatments. […] At time of treatment, test pots were flooded to 3 cm above the soil surface, treated by application of test compounds directly to the paddy water, and then maintained at that water depth for the duration of the test. Treated plants and controls were maintained in a greenhouse for 13 to 15 days, after which time all species were compared to controls and visually evaluated. […] A dash (-) response means no test result.

SMILES | Plant response rating, Chickweed (common chickweed; 8 g ai/ha, preemergence) | Chickweed plant response rating (common chickweed; 62 g ai/ha, Preemergence) | Plant response rating, Chickweed (common chickweed; Preemergence, 16 g ai/ha) | Plant response rating, Chickweed (common chickweed; Preemergence, 31 g ai/ha) | Chickweed plant response rating (common chickweed; 125 g ai/ha, preemergence) | Plant response rating (0 to 100), Windgrass (windgrass; 31 g ai/ha) | Plant response rating (0 to 100), Windgrass (windgrass; 62 g ai/ha) | Plant response rating, Windgrass (windgrass; 125 g ai/ha) | Plant response rating, Windgrass (windgrass; 250 g ai/ha) | Plant response rating (0 to 100), Canarygrass (canarygrass; 31 g ai/ha) | Plant response rating, Canarygrass (canarygrass; 62 g ai/ha) | Plant response rating, Canarygrass (canarygrass; 125 g ai/ha) | Plant response rating, Canarygrass (canarygrass; 250 g ai/ha) | Plant response rating, Chickweed (common chickweed; 16 g ai/ha, preemergence) | Chickweed plant response rating (common chickweed; 250 g ai/ha, preemergence) | Plant response rating (0 to 100), Canarygrass (canarygrass; 62 g ai/ha) | Plant response rating, Chickweed (common chickweed; Preemergence, 62 g ai/ha)
Cc1cc[n+]([O-])c([S+]([O-])Cc2c(C(F)(F)F)nn(C)c2Cl)c1 (racemic) [Compound 20] | 0 | 95 | 80 | 90 | – | – | – | – | – | – | – | – | – | – | – | – | –
Cc1cc[n+]([O-])c([S+]([O-])Cc2c(C(F)(F)F)nn(C)c2OCC(F)(F)F)c1 (racemic) [Compound 30] | – | 100 | 75 | 100 | 100 | – | – | – | – | – | – | – | – | – | – | – | –
CC(c1c(C(F)(F)F)nn(C)c1Cl)S(=O)(=O)c1ccc(Cl)c[n+]1[O-] (racemic) [Compound 40] | – | – | – | – | – | 45 | 45 | 85 | 85 | 0 | 0 | 0 | 30 | – | – | – | –
Cn1nc(C(F)(F)F)c(C[S+]([O-])c2ccc(Cl)c[n+]2[O-])c1OCC(F)(F)F (racemic) [Compound 62] | – | 100 | – | 100 | 100 | 70 | 80 | 90 | 100 | 0 | 0 | 0 | 10 | 100 | – | – | –
CCn1nc(C(F)(F)F)c(C[S+]([O-])c2cccc[n+]2[O-])c1OCC(F)(F)F (racemic) [Compound 65] | – | – | – | – | – | 50 | 90 | 100 | 100 | 0 | 20 | 20 | 25 | – | – | – | –
CCn1nc(C(F)(F)F)c(C[S+]([O-])c2cc(C)cc[n+]2[O-])c1OCC(F)(F)F (racemic) [Compound 66] | – | 100 | – | 100 | 100 | – | – | – | – | – | – | – | – | 100 | – | – | –
Cn1nc(C(F)(F)F)c(C[S+]([O-])c2cccc[n+]2[O-])c1Cl (stereo not shown) [Compound 8] | – | 95 | 0 | 60 | 98 | – | – | – | – | – | – | – | – | – | – | – | –
Cc1cc[n+]([O-])c(S(=O)(=O)C(C)c2c(C(F)(F)F)nn(C)c2OC(F)F)c1 (stereo not shown) [Compound 11] | – | 100 | 70 | 80 | 100 | – | – | – | – | – | – | – | – | – | – | – | –
Cc1cc[n+]([O-])c(S(=O)(=O)Cc2c(C(F)(F)F)nn(C)c2Cl)c1 [Compound 19] | – | 0 | 0 | 0 | 75 | – | – | – | – | – | – | – | – | – | – | – | –
[O-][n+]1cc(Cl)ccc1[S+]([O-])Cc1c(C(F)(F)F)nn(CC(F)(F)F)c1Cl (stereo not shown) [Compound 47] | – | – | – | – | – | 0 | 0 | 95 | 98 | 0 | 0 | 0 | 40 | – | – | – | –
CCc1cc[n+]([O-])c(S(=O)(=O)Cc2c(C(F)(F)F)nn(C)c2OCC(F)(F)F)c1 [Compound 60] | – | 100 | – | 100 | 100 | – | – | – | – | – | – | – | – | – | 100 | – | –
CCn1nc(C(F)(F)F)c(C(C)S(=O)(=O)c2cccc[n+]2[O-])c1OCC(F)(F)F (stereo not shown) [Compound 69] | – | – | – | – | – | 40 | 95 | 95 | 100 | 0 | 0 | 0 | 10 | – | – | – | –
Cn1nc(C(F)(F)F)c(C[S+]([O-])c2cccc[n+]2[O-])c1OCC(F)(F)C(F)(F)F (stereo not shown) [Compound 78] | – | – | – | – | – | 0 | 0 | 95 | 100 | 0 | 0 | 0 | 0 | – | – | – | –
Cn1nc(C(F)(F)C(F)(F)F)c(C[S+]([O-])c2cccc[n+]2[O-])c1OCC(F)(F)F (stereo not shown) [Compound 79] | – | – | – | – | – | 60 | 100 | 100 | 100 | 0 | – | 0 | 0 | – | – | 0 | –
CC(Oc1c(CS(=O)(=O)c2cccc[n+]2[O-])c(C(F)(F)F)nn1C)C(F)(F)F (stereo not shown) [Compound 82] | – | – | – | – | – | 70 | 90 | 100 | 100 | 0 | – | 0 | 0 | – | – | 0 | –
CC(Oc1c(C[S+]([O-])c2ccc(Cl)c[n+]2[O-])c(C(F)(F)F)nn1C)C(F)(F)F (stereo not shown) [Compound 87] | – | – | – | 100 | 100 | – | – | – | – | – | – | – | – | 0 | – | – | 100
